{
  "source": "patent EP2884284A1",
  "about": "“Dry diagnostic reagent” (priority 2013, dated 2015)",
  "key": {"[1]": {"assay": "Dissolution of the freeze-dried product on contact with a water surface", "type": "physicochemical", "settings": "freeze-dried from c = 320 mg/mL", "text": "In addition, no collapse or meltback could be detected when CLG was freeze-dried appropriately. CLG is, however, evidently metastable as a solid, i.e. amorphous."}, "[2]": {"assay": "Hygroscopicity measurement by mass increase in a glove box at relative air humidity > 50%", "type": "physicochemical", "settings": "1.0g sample, 22.5°C to […], 96 hours, referring to the initial mass", "experimental": "The hygroscopicity of compounds was measured by weighing (Mettler AT261 \"Delta Range\" balance) in the samples at the start of the experiment and at certain time points within a total period of 96 hours. The increase in mass (in %) was calculated for each sample as: (mt -mt0)/(mt0) × 100% [formula] • wherein mt is the mass of the sample at a certain time t and Mt0 is the mass of the sample at the start when placing it in the glove box."}, "[3]": {"test_system": "citrated whole blood", "assay": "ROTEM EXTEM assay, recalcification with CLG solutions, tissue factor activation", "settings": "CLG solution 396 mg/mL, 4 µL in 300 µL citrated whole blood, extem reagent, student t test p = 0.05, n = 10", "experimental": "(§1) The influence of CLG on coagulation was determined using a ROTEM® device (TEM Innovations GmbH, Germany) and whole blood from healthy volunteers using either the EXTEM assay or the NATEM assay. Coagulation was therefore either initiated using the tissue factor based ex-tem® reagent (+recalcification) (TEM Innovations GmbH, Germany) or only by recalcification of the citrated whole blood sample. […]; ROTEM® reagent; TEM Innovations GmbH, Germany). Solutions of CLG were taken to show the influence of the substance independent of the dissolution behavior of the substance.\nIn detail, 300 µL citrated whole blood were taken, mixed with 4 µL of the respective solution of CLG of each concentration or of the star-tem@ reagent, and 16 µL of a 0.9% (m/V) NaCl-solution in ultrapure water. Blood clotting was initiated using the tissue factor based extem® reagent. […] Therefore it is possible to recalcify standard citrated whole blood and restore its clotting ability by using CLG solutions. This is depicted in Figure 2, wherein the data of a ROTEM experiment using two differently concentrated solutions of CLG (320 mg/mL and 396 mg/mL) were used. […]"}, "[4]": {"assay": "Glass transition temperature Tg by differential scanning calorimetry", "type": "physicochemical", "experimental": "Hydranal® Coulomat AG Oven served as a reagent. About 10 mg of the substance was used for an expected residual moisture between 5 - 10%(m/m) and about 50 - 80 mg were used for an expected moisture content […]. […]\nPrimary drying was carried out at Tinlet = -30° C / 30mtorr for 15h followed by secondary drying at 40°C / 30mtorr for 6h with a heating rate between the two steps of 0.3 °C/min. The glass transition temperature as well as the residual moisture content were measured after freeze drying for the respective substance."}, "[5]": {"test_system": "citrated whole blood", "assay": "ROTEM NATEM assay, recalcification only (contact pathway activation)", "experimental": "as §1\nIn addition the clotting properties were investigated when coagulation of whole blood (using 300µL of citrated whole blood) was not initiated using tissue factor but only contact pathway activation, i.e. the citrated whole blood was recalcified using either the star-tem@ reagent or a CLG solution. The measurement was performed according to the automated ROTEM® sequence. Normal values were taken from the \"expected values\" section of the \"instructions for use\" sheet provided together with the star-tem@ reagent. A comparison was carried out with the star-tem@ reagent and the CLG solution with a concentration of 396 mg/mL of example 2. […] Table 1: Measurement values of the data determined in Example 2"}, "[6]": {"test_system": "citrated whole blood", "assay": "ROTEM ex-tem assay, recalcification with freeze-dried pellets", "settings": "p = 0.05, n = 10", "experimental": "The compatibility with coagulation measurement was determined using the ROTEM® device. The measurement was conducted according to the respective automated ROTEM® sequence. 300 µL citrated whole blood (obtained from healthy individuals) were used for each measurement. The pipetting of the respective liquid reagents was performed according to the sequence or was skipped for the solid reagents. […] Coagulation was initiated using the tissue factor based ex-tem® reagent.\nThe ex-tem® assay was selected because of the tissue factor coagulation activation and the resulting short clotting times (CT). Therefore it was possible to investigate whether the freeze-dried products containing a high amount of solid would dissolve rapidly enough to assure complete recalcification and clotting times within a normal range."}, "[7]": {"settings": "300µL citrated whole blood, CLG solution 396 mg/mL or star-tem reagent, no tissue factor"}, "[8]": {"settings": "freeze-dried CLG pellets, 4µmol equivalent"}, "[9]": {"settings": "freeze-dried CLG pellets, lower amount of CLG"}},
  "data": [
    {"substance": "calcium lacto gluconate [CLG]", "values": [
      {"measurement": "dissolution of the freeze-dried product", "setting": "[1]", "value": "dissolved rapidly and completely after a few seconds"},
      {"measurement": "mass increase", "setting": "[2]", "value": "< 0.1", "unit": "%"},
      {"measurement": "clotting time (CT), difference to star-tem solution", "setting": "[3]", "value": "no significant (student t test; probability p = 0.05, n = 10) difference"},
      {"measurement": "glass transition", "setting": "[4]; 1:1 (CL:CG) mixture, moisture content 5.71 % [m/m]", "value": "~87.20", "unit": "°C"},
      {"measurement": "glass transition", "setting": "[4]; 2:1 (CL:CG) mixture, moisture content 6.52 % [m/m]", "value": "about 84.90 °C"},
      {"measurement": "Tg", "setting": "[4]; CLG ratio 0, moisture content 0 %(m/m)", "value": 110.03, "unit": "°C"},
      {"measurement": "Tg", "setting": "[4]; CLG ratio 0, moisture content 3.69 %(m/m)", "value": 79.16, "unit": "°C"},
      {"measurement": "Tg", "setting": "[4]; CLG ratio 0, moisture content 9.86 %(m/m)", "value": 29.77, "unit": "°C"},
      {"measurement": "Tg", "setting": "[4]; CLG ratio 0, moisture content 14.30 %(m/m)", "value": 14.26, "unit": "°C"},
      {"measurement": "Tg", "setting": "[4]; CLG ratio 28.93, moisture content 0 %(m/m)", "value": 125.01, "unit": "°C"},
      {"measurement": "Tg", "setting": "[4]; CLG ratio 28.93, moisture content 4.54 %(m/m)", "value": 92.14, "unit": "°C"},
      {"measurement": "Tg", "setting": "[4]; CLG ratio 28.93, moisture content 5.71 %(m/m)", "value": 87.20, "unit": "°C"},
      {"measurement": "Tg", "setting": "[4]; CLG ratio 28.93, moisture content 8.30 %(m/m)", "value": 61.35, "unit": "°C"},
      {"measurement": "Tg", "setting": "[4]; CLG ratio 28.93, moisture content 9.91 %(m/m)", "value": 40.75, "unit": "°C"},
      {"measurement": "Tg", "setting": "[4]; CLG ratio 50.44, moisture content 6.52 %(m/m)", "value": 84.9, "unit": "°C"},
      {"measurement": "Tg", "setting": "[4]; CLG ratio 62.23, moisture content 0 %(m/m)", "value": 144.37, "unit": "°C"},
      {"measurement": "Tg", "setting": "[4]; CLG ratio 62.23, moisture content 10.00 %(m/m)", "value": 58.91, "unit": "°C"},
      {"measurement": "Tg", "setting": "[4]; CLG ratio 62.23, moisture content 10.37 %(m/m)", "value": 56.54, "unit": "°C"},
      {"measurement": "Tg", "setting": "[4]; CLG ratio %(m(CL)/m(CLG)) = 100, moisture content 0 %(m/m) (annealed)", "value": 152.06, "unit": "°C"},
      {"measurement": "Tg", "setting": "[4]; CLG ratio %(m(CL)/m(CLG)) = 100, moisture content 5.20 %(m/m)", "value": 112.86, "unit": "°C"},
      {"measurement": "Tg", "setting": "[4]; CLG ratio %(m(CL)/m(CLG)) = 100, moisture content 10.15 %(m/m)", "value": 58.45, "unit": "°C"},
      {"measurement": "Tg", "setting": "[4]; CLG ratio %(m(CL)/m(CLG)) = 100, moisture content […](m/m)", "value": 34.39, "unit": "°C"},
      {"measurement": "CFT", "setting": "[5]; [7]", "value": 183.00},
      {"measurement": "alpha", "setting": "[5]; [7]", "value": 54.67, "unit": "°"},
      {"measurement": "difference between clotting time", "setting": "[5]; CLG solution 396 mg/mL versus star-tem reagent", "value": "around 3%"},
      {"measurement": "A10", "setting": "[5]; amplitude after 10 minutes, 300µL citrated whole blood, CLG solution 396 mg/mL or star-tem reagent, no tissue factor", "value": 42.33},
      {"measurement": "MCF", "setting": "[5]; maximum clot firmness, 300µL citrated whole blood, CLG solution 396 mg/mL or star-tem reagent, no tissue factor", "value": 51.33},
      {"measurement": "CT values, difference to reference", "setting": "[6]; freeze-dried CLG pellets versus 20µL star-tem reagent, ex-tem activation", "value": "no significant (p = 0.05; n = 10) difference"},
      {"measurement": "amplitudes after 10 minutes reaction time (A10), difference to reference", "setting": "[6]; [8]", "value": "Neither the clot formation times (CFT) nor the amplitudes after 10 minutes reaction time (A10) of the 4µmol equivalent did significantly (p = 0.05, n = 10) differ from the reference"},
      {"measurement": "clot formation times (CFT), difference to reference", "setting": "[6]; [8]", "value": "Neither the clot formation times (CFT) nor the amplitudes after 10 minutes reaction time (A10) of the 4µmol equivalent did significantly (p = 0.05, n = 10) differ from the reference"},
      {"measurement": "A10, difference to reference", "setting": "[6]; [9]", "value": "slight but significant (p = 0.05, n = 10) variations"},
      {"measurement": "CFT, difference to reference", "setting": "[6]; [9]", "value": "slight but significant (p = 0.05, n = 10) variations"}
    ]}
  ]
}
